Patent publication US10385113B2, “Engineered FGF compositions and methods of use thereof” (THE BOARD OF TRUSTEES OF THE UNIVERSITY OF ARKANSAS, priority 2016, dated 2019)

What was measured:
[1] = target: T1, human FGF-1 (hFGF-1), wild type (wtFGF-1), SEQ ID NO: 2 (Homo sapiens, UniProt P05230); experiment: Isothermal titration calorimetry (ITC) of wild-type FGF-1 with SOS; format: binding; details: FIG. 10A
T1 construct: made in house
Protocol: (§1) For WT hFGF-1, and mutant proteins were in the cell and at a concentration of 0.05 mM in a buffer of 10 mM phosphate, 100 mM NaCl, 50 mM ammonium sulfate, pH 6.5. […] The data was analyzed using Origin scientific plotting software.
(§2) ITC is a method used to directly evaluate the affinity and enthalpy of binding reactions.

[2] = target: T2, human FGF-1 (hFGF-1) mutant R136E, SEQ ID NO: 4 (Homo sapiens, UniProt P05230, R137E); experiment: Isothermal titration calorimetry (ITC) of FGF-1 mutant R136E with SOS; format: binding; details: 10 mM phosphate, 100 mM NaCl, 50 mM ammonium sulfate, pH 6.5, 25° C., FIG. 10C, read-out: dissociation constant (Kd)
T2 construct: made in house
T2 sequence (P05230 16-155 R137E): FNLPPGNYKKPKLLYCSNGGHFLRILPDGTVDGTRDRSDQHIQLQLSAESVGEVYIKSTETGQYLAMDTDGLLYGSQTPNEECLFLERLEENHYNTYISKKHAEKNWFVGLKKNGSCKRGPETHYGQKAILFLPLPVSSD
Protocol: as §1, §2

T1 sequence (P05230 16-155): as the sequence (P05230 16-155 R137E) above, with E122R counted along it

With `O=S(=O)(O)OC[C@H]1O[C@@](COS(=O)(=O)O)(O[C@H]2O[C@H](COS(=O)(=O)O)[C@@H](OS(=O)(=O)O)[C@H](OS(=O)(=O)O)[C@H]2OS(=O)(=O)O)[C@@H](OS(=O)(=O)O)[C@@H]1OS(=O)(=O)O` [SOS, sucrose octasulfate] the Kd ([1]; 10 mM phosphate, 100 mM NaCl, 50 mM ammonium sulfate, pH 6.5, 25° C., read-out: dissociation constant (Kd)) was 2.6 µM, the “affinity to SOS (binding isotherm)” value ([1]; compared with R136E, result in words) was “strong affinity” and the Kd [2] was 72.4 µM.
